Assay results: paper PMC7138307 (PLoS ONE, 2020)

Assays:
[1] = test system: tau phosphorylation following TTBK1 overexpression in HEK293 cells; experiment: Western blot of tau phosphorylation in HEK293 cells overexpressing TTBK1 and human Tau (2N4R) plus or minus staurosporine; assay type: cell-based; conditions: 10μM, one hour
Excerpt: However, it is unclear whether TTBK1 directly phosphorylates tau at these sites or whether it enhances the phosphorylation of tau through the activation of other kinases. […]; Fig 1A). […]. TTBK1 overexpression led to the increase in tau phosphorylation at several sites; some previously identified including S422, AT8 ([…]) and S198 as well as additional novel sites like AT180 (Thr231), PHF-13 (S396), S214, and S356 (Fig 1B and 1C). […].
Fig 1 TTBK1 overexpression leads to direct and indirect phosphorylation of Tau at disease-relevant sites. (A) Phylogenetic tree of the human kinome illustrating the biochemical IC50 for Staurosporine against various kinases (data compiled from Davis et al., 2011 in addition to internal data on the affinity of Staurosporine for TTBK1/TTBK2). […] TTBK1 overexpression caused a dramatic increase in the overall level of tau phosphorylation. […]. HEK293 cells obtained from American Type Culture Collection (ATCC, Manassas, VA) were cultured in Dulbecco's modified Eagle's medium (DMEM) supplemented with 10% fetal bovine serum (FBS), 10 units/ml penicillin, and 10μg/ml streptomycin (all reagents were purchased from Gibco, Waltham, MA). Cell cultures were maintained in a humidified 5% (v/v) CO2/air environment at 37°C. When the cells reached 50–80% confluence, they were transfected with a complex consisting of a 3:1 ratio of FuGENE 6 Transfection Reagent (Promega, Madison, WI) and plasmid DNA. Plasmid DNA was balanced out across reactions using an empty plasmid so that the same amount of DNA was added per well. This transfection complex was prepared following the manufacturers protocol and added directly to the cell media for 24 or 48 hours prior to lysis.
Samples were lysed in Pierce RIPA lysis and extraction buffer (Thermo Fisher Scientific, Waltham, MA) supplemented with 1% Halt protease and phosphatase inhibitor cocktail (Thermo Fisher Scientific, Waltham, MA) and centrifuged at 14000 x g for 20 min at 4°C to clear the lysate. Protein concentrations were determined using the Direct Detect Infrared Spectrometer (EMD Millipore Corp., Burlington, MA) and 10μg of each sample was denatured in 6X SDS sample buffer (Boston Bioproducts, Ashland, MA) for 7 minutes at 90°C. Proteins were loaded into a Criterion 7.5% tris-glycine gel (Bio-Rad, Hercules, CA) and separated by SDS-PAGE at 120V for 120 minutes. The gel was transferred to an IBlot2 nitrocellulose membrane (Invitrogen, Carlsbad, CA), blocked with TBST blocking buffer (Li-cor Biosciences, Lincoln, NE) for 1 hour, and washed three times with TBST. The membrane was probed with primary antibodies (1:1000 dilution) in antibody dilution buffer (1:1 TBST blocking buffer and 1X TBST) overnight at 4°C. The following antibodies were used for immunoblotting: TTBK1 (Cat# PA5-20686, Invitrogen, Carlsbad, CA), Tau-5 (Cat# ab80579, Abcam, Cambridge, UK), phospho-Tau S422 (Cat# ab79415, Abcam, Cambridge, UK), S198 (Cat# ab79540, Abcam, Cambridge, UK), AT8 S202/T205 (Cat# MN1020, Invitrogen, Carlsbad, CA), S214 (Cat# ab170892, Abcam, Cambridge, UK), AT180 T231 (Cat# MN1040, Invitrogen, Carlsbad, CA), S262 (Cat# ab131354, Abcam, Cambridge, UK), S356 (Cat# ab75603, Abcam, Cambridge, UK), S396 (Cat# ab109390, Abcam, Cambridge, UK), GAPDH (Cat# 5174S, Cell Signaling Technology, Danvers, MA), and β-actin (Cat# 926–42212, Li-cor Biosciences, Lincoln, NE). The blot was then washed in triplicate with TBST and incubated for 1 hour with secondary antibody (1:10,000 dilution of IRDye 800 anti-mouse IgG and IRDye 680 anti-rabbit IgG, Li-cor Biosciences, Lincoln, NE) in antibody dilution buffer. After a final triplicate wash with TBST, the blot was visualized using the Odyssey CLx imaging system (Li-cor Biosciences, Lincoln, NE).

[2] = molecular target: T1, TTBK1 (Homo sapiens, UniProt Q5TCY1); experiment: TTBK biochemical (recombinant kinase) assay
T1 construct: TTBK1 1-479aa; SignalChem Catalog # T17-11G-05; purchased SignalChem T17-11G-05
T1 sequence (Q5TCY1 1-479): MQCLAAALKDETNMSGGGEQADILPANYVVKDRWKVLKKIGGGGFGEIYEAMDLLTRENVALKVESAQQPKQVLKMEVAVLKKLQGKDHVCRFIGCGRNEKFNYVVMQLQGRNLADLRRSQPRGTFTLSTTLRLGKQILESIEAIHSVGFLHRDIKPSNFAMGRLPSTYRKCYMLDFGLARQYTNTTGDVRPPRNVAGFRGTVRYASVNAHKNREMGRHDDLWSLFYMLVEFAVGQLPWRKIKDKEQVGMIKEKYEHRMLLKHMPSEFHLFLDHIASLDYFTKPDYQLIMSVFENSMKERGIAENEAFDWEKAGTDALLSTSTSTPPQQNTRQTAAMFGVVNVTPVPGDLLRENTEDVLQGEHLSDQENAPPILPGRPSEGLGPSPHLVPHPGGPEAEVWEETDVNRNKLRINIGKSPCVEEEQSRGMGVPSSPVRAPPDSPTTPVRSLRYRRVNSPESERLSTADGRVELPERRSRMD
Procedure: Final Kinase Activity conditions; 400 pM TTBK1 at ambient temperature in 25 mM Hepes, pH 7.5, 50 mM NaCl, 10 mM MgCl2, 0.02% Brij-35, 1 mM DTT, 10 uM ATP and 100 nM Ulight TOPO IIa peptide substrate ([sequence]). After a 2 hour incubation at 23 °C, the kinase reaction was quenched with 30 ul of 60 mM EDTA, and 2 nM Eu-anti- FDEKpTDDEDF antibody in 1X Lance Delfia Detection Buffer and incubated for one hour prior to detection with the EnVision Multilabel Reader (PerkinElmer). […] For compound inhibition, 15 ul of 800 pM TTBK1 was preincubated for 30 minutes with 300 nl of 100x compound stock in DMSO before initiation of the activity by addition of 15 ul of 2x Substrate Stock (200 nM peptide and 20 uM ATP).

What does the source list for CN[C@@H]1C[C@H]2O[C@@](C)([C@@H]1OC)n1c3ccccc3c3c4c(c5c6ccccc6n2c5c31)C(=O)NC4 [Staurosporine, staurosporine]?
increase in tau phosphorylation at AT8 following TTBK1 overexpression [1]: not inhibited; increase in tau phosphorylation at S198 following TTBK1 overexpression [1]: not inhibited; increase in tau phosphorylation at S422 following TTBK1 overexpression [1]: not inhibited; phosphorylation of tau at AT180 [1]: reduced; phosphorylation of tau at S214 [1]: reduced; phosphorylation of tau at S356 [1]: reduced; phosphorylation of tau at S396 [1]: reduced; IC50 [2]: > 30 µM
